In ChEMBL document CHEMBL3745685, “An appraisal on recent medicinal perspective of curcumin degradant: Dehydrozingerone (DZG)” (Bioorg Med Chem, 2016):
pIC50: −log10 of the molar value. Values after ≈ are worked out from the molar mass of the structure shown. One block for each molecule: values may come before it.

Experiments:
[1] = system: Raji; experiment: Cytotoxicity against human Raji cells expressing EBV-EA assessed as inhibition of TPA-induced EBV-EA activation after 48 hrs by trypan blue staining based immunofluorescence method relative to TPA; assay type: functional, cell-based
[2] = Antioxidant activity assessed as ABTS free radical scavenging activity; assay type: physicochemical
[3] = system: Raji; experiment: Cytotoxicity against human Raji cells expressing EBV-EA assessed as inhibition of TPA-induced EBV-EA activation at 10 molar ratio after 48 hrs by trypan blue staining based immunofluorescence method relative to TPA; assay type: functional
[4] = system: OVCAR-8; experiment: Resistance factor, ratio of IC50 for human multidrug resistant NCI/ADR-RES cells to IC50 for human OVCAR8 cells; assay type: functional
[5] = system: NCI/ADR-RES; experiment: Cytotoxicity against human multidrug resistant NCI/ADR-RES cells overexpressing P-gp assessed as reduction in cell viability by MTT assay; assay type: functional, cell-based
[6] = Cytotoxicity against human OVCAR8 cells assessed as reduction in cell viability by MTT assay; assay type: functional, cell-based; conditions: OVCAR-8
[7] = Antioxidant activity assessed as DPPH radical scavenging activity incubated for 20 mins by spectrophotometry analysis; assay type: physicochemical
[8] = Potency index, ratio of ascorbic acid IC0.2 to compound IC0.2 for antioxidant activity by DPPH assay
[9] = Antioxidant activity assessed as DPPH radical scavenging activity; assay type: physicochemical
[10] = system: Brain; experiment: Antioxidant activity in Wistar rat brain homogenate assessed as inhibition of Fe(II)-induced lipid peroxidation; assay type: functional, tissue-based
[11] = system: Rattus norvegicus; experiment: Antiinflammatory activity in rat assessed as inhibition of carrageenan-induced paw edema relative to control; assay type: functional
[12] = system: Mus musculus; experiment: Analgesic activity in albino mouse assessed as inhibition of acetic acid-induced writhing response at 1 mmol/kg relative to control; assay type: functional
[13] = system: Spilarctia obliqua; experiment: Insecticidal activity against third-instar larval stage of Spilosoma obliqua Walker assessed as growth inhibition after 24 hrs by leaf disc method; assay type: functional, organism-based
[14] = system: Penicillium chrysogenum; experiment: Antifungal activity against Penicillium chrysogenum MTCC 616 assessed as growth inhibition after 5 to 7 days by broth dilution method; assay type: functional
[15] = system: Aspergillus flavus; experiment: Fungicidal activity against Aspergillus flavus MTCC 277 after 5 to 7 days by agar well diffusion method; assay type: functional
[16] = system: Aspergillus ochraceus; experiment: Fungicidal activity against Aspergillus ochraceus MTCC 4643 after 5 to 7 days by agar well diffusion method; assay type: functional
[17] = system: Fusarium oxysporum; experiment: Antifungal activity against Fusarium oxysporum MTCC 1755 assessed as growth inhibition after 5 to 7 days by broth dilution method; assay type: functional
[18] = system: Penicillium chrysogenum; experiment: Fungicidal activity against Penicillium chrysogenum MTCC 616 after 5 to 7 days by agar well diffusion method; assay type: functional
[19] = system: Rhizoctonia solani; experiment: Antifungal activity against Rhizoctonia solani Kuhn assessed as growth inhibition after 2 to 3 days by poisoned food method; assay type: functional, organism-based
[20] = system: Aspergillus oryzae; experiment: Fungicidal activity against Aspergillus oryzae MTCC 262 after 5 to 7 days by agar well diffusion method; assay type: functional
[21] = system: Fusarium oxysporum; experiment: Fungicidal activity against Fusarium oxysporum MTCC 1755 after 5 to 7 days by agar well diffusion method; assay type: functional
[22] = system: Aspergillus ochraceus; experiment: Antifungal activity against Aspergillus ochraceus MTCC 4643 assessed as growth inhibition after 5 to 7 days by broth dilution method; assay type: functional
[23] = system: Aspergillus niger; experiment: Fungicidal activity against Aspergillus niger MTCC 218 after 5 to 7 days by agar well diffusion method; assay type: functional
[24] = system: Aspergillus oryzae; experiment: Antifungal activity against Aspergillus oryzae MTCC 262 assessed as growth inhibition after 5 to 7 days by broth dilution method; assay type: functional
[25] = system: Aspergillus niger; experiment: Antifungal activity against Aspergillus niger MTCC 218 assessed as growth inhibition after 5 to 7 days by broth dilution method; assay type: functional
[26] = system: Aspergillus flavus; experiment: Antifungal activity against Aspergillus flavus MTCC 277 assessed as growth inhibition after 5 to 7 days by broth dilution method; assay type: functional
[27] = system: Raji; experiment: Cytotoxicity against human Raji cells expressing EBV-EA assessed as inhibition of TPA-induced EBV-EA activation at 38 molar ratio after 48 hrs by trypan blue staining based immunofluorescence method relative to TPA; assay type: functional
[28] = system: Raji; experiment: Cytotoxicity against human Raji cells expressing EBV-EA assessed as inhibition of TPA-induced EBV-EA activation at 500 molar ratio after 48 hrs by trypan blue staining based immunofluorescence method relative to TPA; assay type: functional
[29] = system: Raji; experiment: Cytotoxicity against human Raji cells expressing EBV-EA assessed as inhibition of TPA-induced EBV-EA activation at 100 molar ratio after 48 hrs by trypan blue staining based immunofluorescence method relative to TPA; assay type: functional
[30] = system: Raji; experiment: Cytotoxicity against human Raji cells expressing EBV-EA assessed as inhibition of TPA-induced EBV-EA activation at 1000 molar ratio after 48 hrs by trypan blue staining based immunofluorescence method relative to TPA; assay type: functional
[31] = Antiproliferative activity against human MM1S cells assessed as growth inhibition at 10 uM after 48 hrs by MTT assay relative to control; assay type: functional; conditions: MM1.S, read-out: GI
[32] = Antiproliferative activity against human RPMI8226 cells assessed as growth inhibition at 10 uM after 48 hrs by MTT assay relative to control; assay type: functional; conditions: RPMI-8226, 48 h, read-out: GI
[33] = Antiproliferative activity against human U266 cells assessed as growth inhibition at 10 uM after 48 hrs by MTT assay relative to control; assay type: functional; conditions: U-266, 48 h, read-out: GI
[34] = Potency index, ratio of alpha-tocopherol IC0.2 to compound IC0.2 for antioxidant activity by DPPH assay

Molecule: COc1cccc(/C=C/C(C)=O)c1O
- IC50 [1]: 50 molar ratio

- pIC50 [2]: 5.19
Molecule: COc1cc(C(CC(C)=O)Sc2ccccc2)ccc1O (stereo not drawn)

Molecule: COc1ccc(/C=C/C(C)=O)c(OCC=C(C)C)c1
- inhibition (INH) [3]: 11%

Molecule: COc1cc(/C=C/C(=O)/C=C/c2nc3c(C)cccc3n2C)ccc1O
- Ratio IC50 [4]: 33.1
- pIC50 [5]: 4.63
- pIC50 [6]: 6.15

- pIC50 [7]: 1.70
Molecule: COc1ccc(/C=C/C(C)=O)cc1OC
- IC50 [1]: 107 molar ratio

- IC0.2 [9]: 4.9 µM
Molecule: CC(=O)/C=C/c1cc(O)ccc1O
- Ratio [8]: 5

- IC0.2 [9]: 23.7 µM
Molecule: O=C1O[C@H]([C@@H](O)CO)C(O)=C1O [ASCORBIC ACID]

Molecule: COc1cc(C(CC(C)=O)[Se]c2ccccc2)ccc1O (stereo not drawn)
- pIC50 [2]: 5.10

- IC0.2 [9]: 8.3 µM
- pIC50 [10]: 5.60
Molecule: VITAMIN E

Molecule: CC(C)Cc1ccc(C(C)C(=O)O)cc1 (stereo not drawn) [IBUPROFEN]
- inhibition (INH) [11]: 73%
- inhibition in vivo at 1000 µmol/kg [12]: 69%

Molecule: CC(=O)C#Cc1ccccc1 [4-PHENYL-3-BUTYN-2-ONE]
- IC50 [1]: 48 molar ratio

Molecule: COc1cc(/C=C/C(=O)/C=C/c2nc3cc(C)ccc3n2C)ccc1O
- Ratio IC50 [4]: 1.7

Molecule: CCCCC/C=C/C(=O)/C=C/c1ccc(O)c(OC)c1
- EC50 [13]: 3550 µg/mL (≈ 12.9 mM)

- pIC50 [7]: 3.59
Molecule: Cc1c(C)c2c(c(C)c1O)CCC(C)(C(=O)O)O2 (stereo not drawn) [TROLOX]

Molecule: CC(=O)CCc1ccccc1 [BENZYLACETONE]
- IC50 [1]: 222 molar ratio

Molecule: COc1cc(/C=C/C(=O)CC(=O)/C=C/c2ccc(O)c(OC)c2)ccc1O [CURCUMIN]
- IC50 [1]: 97 molar ratio

- pIC50 [7]: 2.12
Molecule: COc1cc(/C=C/C(C)=O)ccc1OC1OC(CO)C(O)C(O)C1O (stereo not drawn)

Molecule: COc1ccc(/C=C/C(=O)/C=C/c2nc3cc(O)ccc3n2C)cc1O
- Ratio IC50 [4]: 1.4

- MIC [14]: 755 µM (≈ 145 µg/mL)
- MIC [17]: 755 µM (≈ 145 µg/mL)
- pIC50 [2]: 5.10
- MIC [22]: 755 µM (≈ 145 µg/mL)
- MIC [24]: 755 µM (≈ 145 µg/mL)
- MIC [25]: 755 µM (≈ 145 µg/mL)
- MIC [26]: 755 µM (≈ 145 µg/mL)
- pIC50 [7]: 3.52
Molecule: COc1cc(/C=C/C(C)=O)ccc1O [DEHYDROZINGERONE]
- MFC [15]: 880 µM (≈ 169 µg/mL)
- MFC [16]: 880 µM (≈ 169 µg/mL)
- MFC [18]: 880 µM (≈ 169 µg/mL)
- EC50 [19]: 86.5 µg/mL (≈ 0.45 mM)
- MFC [20]: 880 µM (≈ 169 µg/mL)
- IC50 [1]: 95 molar ratio
- MFC [21]: 880 µM (≈ 169 µg/mL)
- MFC [23]: 880 µM (≈ 169 µg/mL)

- pIC50 [7]: 1.40
Molecule: COc1cc(/C=C/C(C)=O)ccc1OC(C)=O

Molecule: COc1cc(/C=C/C(=O)CC(=O)C(C)c2ccc(CC(C)C)cc2)ccc1O (stereo not drawn)
- inhibition (INH) [11]: 76%
- inhibition in vivo at 1000 µmol/kg [12]: 59%

Molecule: C/C=C/c1ccc(O)c(OC)c1
- inhibition (INH) [27]: 50%

Molecule: COc1cccc(/C=C/C(C)=O)c1OCC=C(C)C
- inhibition (INH) [28]: 80%

Molecule: COc1ccc(/C=C/C(=O)/C=C/c2nc3cc(C)ccc3n2C)cc1O
- Ratio IC50 [4]: 1.7

Molecule: COc1ccc(/C=C/C(C)=O)cc1OCC=C(C)C
- inhibition (INH) [29]: 35%

- pIC50 [7]: 2.00
Molecule: COc1cc(/C=C/C(C)=O)ccc1OC1OC(COC(C)=O)C(OC(C)=O)C(OC(C)=O)C1OC(C)=O (stereo not drawn)

Molecule: COc1cc(/C=C/C(C)=O)ccc1OCC=C(C)C
- inhibition (INH) [30]: 100%

Molecule: COc1cc(/C=C/C(=O)/C=C/c2ccc3c(c2)C(=O)N(C2CCC(=O)NC2=O)C3=O)ccc1O (stereo not drawn)
- inhibition of growth at 10 µM [31]: ≥ 90%
- inhibition of growth at 10 µM [32]: ≥ 90%
- inhibition of growth at 10 µM [33]: ≥ 90%

Molecule: COc1cc(/C=C/C(=O)C(=Cc2ccc3c(c2)C(=O)N(C2CCC(=O)NC2=O)C3=O)C(=O)/C=C/c2ccc(O)c(OC)c2)ccc1O (stereo not drawn)
- inhibition of growth at 10 µM [31]: ≥ 90%
- inhibition of growth at 10 µM [32]: ≥ 90%
- inhibition of growth at 10 µM [33]: ≥ 90%

- IC0.2 [9]: 3.2 µM
- pIC50 ([10]; Rattus norvegicus, Wistar, Brain): 5.20
Molecule: CC(=O)/C=C/c1cccc(O)c1O
- Ratio [34]: 2
